This experiment concerns mice. As to the kind of experiment: Neuropharmacological Assay (SmartCube): automated behavioral signature of compound-treated mice compared with a database of reference drug classes. It counts as in vivo. The following applies: for minimal effective dose: Mus musculus, ip, read-out: MED; for minimal effective dose / MED: minimal effective dose: dose having 45% or more total activity in SmartCube, i.p., if only one dose tested, that dose is shown; for AD / AG / AN / AX / CE / MS / PS / SH / UK / AP / HL: SmartCube class probability, 3.0 mg/kg i.p., 15 min before test. Summed up: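 Mice dosed i.p. 15 min before SmartCube testing, with compound in N-methyl-2-pyrrolidone/polyethylene glycol/propylene glycol. Video-captured behaviour is compared with a reference-drug signature database to give per-class probabilities, reported at 3.0 mg/kg. MED, from doses usually 0.3–10 mg/kg, is the lowest dose giving ≥45% total activity.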

The values that follow come from US20260274814A1, “THIENYL COMPOUNDS FOR THE TREATMENT OF A CENTRAL NERVOUS SYSTEM DISEASE OR DISORDER” (Coreterra Therapeutics, Inc., priority 2023, published 2026).

Structures can show the parent of a compound that is named as a salt.

For `CNC1CCc2c(Cl)csc2C1` (single isomer, unassigned) [Compound 198, 3-chloro-N-methyl-4,5,6,7-tetrahydrobenzothiophen-6-amine hydrochloride], the minimal effective dose was under 3 mg/kg, the AD result was “ND (^ <4%)”, the AG result is given as “ND (^ <4%)” and the AN entry is on record as “ND (^ <4%)”. In addition, the AX result is recorded as “ND (^ <4%)”, the CE result is reported as “ND (^ <4%)”, the MS result is “ND (^ <4%)” and the PS result is listed as “ND (^ <4%)”. Besides, the SH entry is listed as “ND (^ <4%)” and the UK entry was “ND (^ <4%)”. Under “hydrochloride, 3 mg/kg”, the AP result is “++++ (≥74%)” and the HL entry is listed as “ND (^ <4%)”.
As for `CNC1CCc2c(Cl)csc2C1` (single isomer, unassigned) [Compound 199, 3-chloro-N-methyl-4,5,6,7-tetrahydrobenzothiophen-6-amine hydrochloride], the AD result was “ND (^ <4%)”, the AG entry is listed as “ND (^ <4%)”, the AN result was “ND (^ <4%)” and the AX entry is “ND (^ <4%)”. Further, the CE entry was “ND (^ <4%)”, the MS entry was “ND (^ <4%)”, the PS result is listed as “ND (^ <4%)” and the SH result is reported as “ND (^ <4%)”. Also, the UK result is listed as “ND (^ <4%)” and the MED is under 3 mpk. For the setting “hydrochloride, 3 mg/kg”, the AP result is recorded as “ND (^ <4%)” and the HL entry is “+ (≥4%)”.
`CNC1CCc2c(F)sc(C)c2C1` (single isomer, unassigned) [Compound 210, 1-fluoro-N, 3-dimethyl-4,5,6,7-tetrahydro-2-benzothiophen-5-amine hydrochloride]: the minimal effective dose amounted to 3 mg/kg, the AD entry is reported as “ND (^ <4%)”, the AG entry is “ND (^ <4%)” and the AN result was “ND (^ <4%)”. Further, the AX entry was “ND (^ <4%)”, the CE entry is on record as “ND (^ <4%)”, the HL result was “ND (^ <4%)” and the MS entry was “ND (^ <4%)”. Also, the PS entry is “ND (^ <4%)” and the SH result is recorded as “ND (^ <4%)”. Besides, where the note is “hydrochloride, 3 mg/kg”, the AP result is listed as “+ (≥4%)” and the UK entry is on record as “+++ (≥49%)”.
Take `CNC1CCc2c(F)sc(C)c2C1` (single isomer, unassigned) [Compound 211, 1-fluoro-N, 3-dimethyl-4,5,6,7-tetrahydro-2-benzothiophen-5-amine hydrochloride]: the AD entry was “ND (^ <4%)”, the AG result is “ND (^ <4%)”, the AN entry is listed as “ND (^ <4%)” and the AX result is “ND (^ <4%)”. Moreover, the CE entry is “ND (^ <4%)”, the HL entry was “ND (^ <4%)”, the MS entry is “ND (^ <4%)” and the PS result is “ND (^ <4%)”. The SH entry is given as “ND (^ <4%)”. In addition, where the note is “hydrochloride, 3 mg/kg”, the AP entry is reported as “++++ (≥74%)” and the UK result is on record as “ND (^ <4%)”. The MED (hydrochloride) is recorded as under 3 mpk.
Take `NC1CCc2sccc2C1` (single isomer, unassigned) [Compound 212, 4,5,6,7-tetrahydrobenzothiophen-5-amine hydrochloride]: the minimal effective dose stood at 1 mg/kg, the AG entry is on record as “ND (^ <4%)”, the AN entry is “ND (^ <4%)” and the AP entry is recorded as “+ (≥4%)”. Also, the HL entry is “ND (^ <4%)”, the MS result was “ND (^ <4%)”, the PS result is reported as “ND (^ <4%)” and the UK entry was “ND (^ <4%)”. In addition, under “hydrochloride, 3 mg/kg”, the AD entry is listed as “+++ (≥49%)”, the AX result is “+ (≥4%)”, the CE result was “+ (≥4%)” and the SH result is “ND (^ <4%)”.
Regarding `NC1CCc2sccc2C1` (single isomer, unassigned) [Compound 213, 4,5,6,7-tetrahydrobenzothiophen-5-amine hydrochloride], the AG entry is given as “ND (^ <4%)”, the AN result is given as “ND (^ <4%)”, the AP entry is listed as “+ (≥4%)” and the HL result was “ND (^ <4%)”. Besides, the MS entry was “ND (^ <4%)”, the PS result is listed as “ND (^ <4%)”, the UK result is on record as “ND (^ <4%)” and the MED stood at 1 mpk. Where the note is “hydrochloride, 3 mg/kg”, the AD entry is “+ (≥4%)”, the AX entry was “+++ (≥49%)”, the CE result was “ND (^ <4%)” and the SH entry was “+ (≥4%)”.
For `CNC1CCc2sc(C)cc2C1` (single isomer, unassigned) [Compound 223, N, 2-dimethyl-4,5,6,7-tetrahydrobenzothiophen-5-amine hydrochloride], the minimal effective dose is over 3 mg/kg, the AD entry is recorded as “ND (^ <4%)”, the AG result is reported as “ND (^ <4%)” and the AN entry is “ND (^ <4%)”. The AX entry is recorded as “ND (^ <4%)”, the CE entry was “ND (^ <4%)”, the HL result was “ND (^ <4%)” and the MS result is reported as “ND (^ <4%)”. The PS result was “ND (^ <4%)” and the SH entry is reported as “ND (^ <4%)”. In addition, for the setting “hydrochloride, 3 mg/kg”, the AP entry is recorded as “ND (^ <4%)” and the UK result is reported as “++ (≥24%)”.
Turning to `CNC1CCc2sc(C)cc2C1` (single isomer, unassigned) [Compound 224, N, 2-dimethyl-4,5,6,7-tetrahydrobenzothiophen-5-amine hydrochloride], the AD result was “ND (^ <4%)”, the AG result is recorded as “ND (^ <4%)”, the AN result is “ND (^ <4%)” and the AX result is listed as “ND (^ <4%)”. In addition, the CE entry was “ND (^ <4%)”, the HL result is reported as “ND (^ <4%)”, the MS entry was “ND (^ <4%)” and the PS entry is “ND (^ <4%)”. Also, the SH result is listed as “ND (^ <4%)”. Besides, under “hydrochloride, 3 mg/kg”, the AP result is on record as “++++ (≥74%)” and the UK result is recorded as “ND (^ <4%)”. This compound came in with an MED (hydrochloride) of 3 mpk.
As for `CNC1CCc2c(C(F)(F)F)csc2C1` (single isomer, unassigned) [Compound 230, N-methyl-3-(trifluoromethyl)-4,5,6,7-tetrahydrobenzothiophen-6-amine hydrochloride], the minimal effective dose turned out to be 3 mg/kg, the AG entry is “ND (^ <4%)”, the AN entry is “ND (^ <4%)” and the AP entry is “ND (^ <4%)”. In addition, the AX result was “ND (^ <4%)”, the CE entry is “ND (^ <4%)”, the HL result is listed as “ND (^ <4%)” and the MS result is recorded as “ND (^ <4%)”. Moreover, the PS entry is “ND (^ <4%)” and the SH result is reported as “ND (^ <4%)”. Also, for the setting “hydrochloride, 3 mg/kg”, the AD result is reported as “+ (≥4%)” and the UK result is given as “ND (^ <4%)”.
